{"source": "patent US20160272969A1", "about": "“COMPOSITIONS AND METHODS FOR MODULATING AUTOPHAGIC CELL DEATH” (priority 2013, published 2016)", "key": {"[1]": {"system": "MCF-7 cells", "assay": "Labeling of autophagic vacuoles with monodansylcadaverine (MDC), MCF-7 cells", "assay_type": "cell-based, human", "conditions": "for MDC uptake in cells treated with TPCK: MCF-7 cells treated with TPCK, 3 MA 5 mM or bafilomycin A1 50 nM, 24 hours", "procedure": "(§1) The human breast cancer MCF-7 cell line was cultured in DMEM (Invitrogen, 41965) supplemented with 10% FBS (Beit Haemek, 04-121-1A), 300 mg/l L-glutamine (Beit Haemek, 03-020-1B), 100 U/ml penicillin, 100 μg/ml streptomycin and 12.5 U/ml nystatin (Beit Haemek, 03-032-1B) and 100 U/ml recombinant human insulin (Beit Haemek, 01-818-1H), at 37° C. in 5% CO2.\n(§2) Cells were plated in 24-wells plate or 96-well plates at a concentration of 5·10^4 cells/ml. A day later the cells were treated with different concentrations of tamoxifen or TPCK as indicated below.\n(§3) Following treatment, the cells were incubated with 0.05 mM MDC in PBS at 37° C. for 10 minutes (Biederbick et al., Eur J Cell Biol. 1995 January; 66(1):3-14). Intracellular MDC was measured by fluorescence photometry (excitation wavelength 380 nm, emission filter 525 nm) in a TECAN SPECTRA Fluor Plus microplate reader. The MDC fluorescence intensity was correlated to cell density as measured by XTT reduction assay performed in parallel treated samples. The results are expressed as fluorescence/cell.\n(§4) For visualization of MDC-labeled vacuoles, cells were grown on coverslips, incubated with 0.05 mM MDC at 37° C. for 10 minutes. After incubation, cells were washed four times with PBS and immediately analyzed by fluorescence microscopy."}, "[2]": {"system": "MCF-7 cells", "assay": "Cell death by trypan blue staining, MCF-7 cells", "assay_type": "cell-based, human", "conditions": "for TPCK or tamoxifen-induced cell death on addition of autophagy inhibitor: 50 nM bafilomycin A1, 5 mM 3-Methyladenine or combination of 10 m/ml pepstatin with 10 m/ml E64-d", "procedure": "as §1, §2"}, "[3]": {"system": "HT-29 cells", "assay": "Western blot of LC3-II levels, HT-29 cells", "assay_type": "cell-based, human", "conditions": "for TPCK-induced accumulation of LC3-II: co-incubation with E64d and pepstatin A together"}, "[4]": {"system": "MCF-7 cells", "assay": "Western blot of LC3-II levels, MCF-7 cells", "assay_type": "cell-based, human", "conditions": "for TPCK-induced accumulation of LC3-II: co-incubation with E64d and pepstatin A together"}, "[5]": {"system": "MCF-7 cells", "assay": "Western blot of intracellular AAT level, MCF-7 cells", "assay_type": "cell-based, human", "conditions": "MCF-7 cell lysates; TPCK 50 μM, tamoxifen 10 μM; 1-3 hr treatment", "procedure": "(§5) Normal or treated 10^7 cells were collected, washed twice with ice-cold PBS and resuspended in 0.5 ml ice-cold lysing buffer (50 mM Tris-HCl pH 7.5, 0.1% NP-40, 1 mM DTT, 0.25M sucrose, 2 mM MgCl2). The cells were broken by politron (4 cycles of 7 sec) and the cell debris pelleted by centrifugation in an ultracentrifuge at 120,000×g for 30 min, at 4° C. The supernatant was used immediately or stored at −70° C. Protein content of each sample was determined with BioRad reagent according to Bradford's method using bovine serum albumin (BSA) as standard. Equal amounts of protein samples (40 μg/lane) were subjected to 10% SDS-PAGE before being transferred to polyvinylidene difluoride (PVDF) membranes. The samples were then exposed to the following primary antibodies: goat anti-AAT and goat anti-actin (Santa Cruz Biotechnology, Santa Cruz, Calif.) polyclonal antibody. The secondary antibody was an HRP-conjugated anti-goat IgG (Jackson ImmunoResearch, USA). The membranes were blocked with 5% skin milk/Tris-buffered saline containing 0.1% Tween-20 (TBST) at room temperature for 1 h, after which the samples were incubated overnight at 4° C. with each of the above primary antibodies. The membranes were then washed three times with TBST, followed by 1 h incubation at room temperature with the secondary antibody. […]"}, "[6]": {"target": "alpha-1-antitrypsin (AAT) (Homo sapiens, UniProt P01009)", "sequence (P01009 25-418)": "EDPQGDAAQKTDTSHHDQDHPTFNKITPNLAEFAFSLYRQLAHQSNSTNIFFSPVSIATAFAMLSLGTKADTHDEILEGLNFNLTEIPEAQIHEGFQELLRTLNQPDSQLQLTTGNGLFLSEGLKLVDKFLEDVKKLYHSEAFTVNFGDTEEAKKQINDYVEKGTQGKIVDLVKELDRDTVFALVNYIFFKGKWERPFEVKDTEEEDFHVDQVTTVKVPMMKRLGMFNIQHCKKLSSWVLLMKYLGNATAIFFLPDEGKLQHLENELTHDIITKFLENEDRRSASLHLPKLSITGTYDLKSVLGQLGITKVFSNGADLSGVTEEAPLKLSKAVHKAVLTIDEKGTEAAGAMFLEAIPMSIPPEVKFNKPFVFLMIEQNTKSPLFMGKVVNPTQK", "assay": "Interaction assay between AAT and TRFCK (SDS-PAGE fluorescence, Western blot)", "assay_type": "binding", "procedure": "2 μg/μl AAT was incubated in vitro with 50 μM TRFCK in 37° c. for 30 min. After the incubation time the sample was subjected to 10% SDS-PAGE before being transferred to polyvinylidene difluoride (PVDF) membranes. At the end of the transfer the membrane was analyzed under UV lamp to track TRFCK fluorescence. The sample was then exposed to primary antibody anti-AAT. The secondary antibody was an HRP-conjugated anti-goat IgG (Jackson ImmunoResearch, USA) The membrane was then visualized using an ECL+plus Western Blotting Detection System.\nAAT was incubated in vitro with 50 μM TRFCK (a fluorescence analog of TPCK, N-tosyl-L-phenylalanine chloromethyl ketone) in 37° C. for 30 min. Following incubation, the sample was applied to SDS-PAGE electrophoresis and transferred to PVDF membrane. Thereafter, the membrane was analyzed under UV lamp to track TRFCK fluorescence (FIG. 2, track 1). In addition, Western blot analysis was performed using the same membrane with an antibody against AAT (FIG. 2, track 2)."}, "[7]": {"system": "HT-29 cells", "assay": "Western blot of intracellular AAT level, HT-29 cells", "assay_type": "cell-based, human", "conditions": "HT-29 cell lysates; TPCK 50 μM, tamoxifen 10 μM; 1-3 hr treatment", "procedure": "as §5"}, "[8]": {"system": "trypsin", "assay": "Trypsin activity assay (BAEE cleavage)", "assay_type": "biochemical", "conditions": "substrate BAEE, absorbance at 253 nm", "procedure": "(§6) Trypsin activity was determined according to Bergmeyer et. al. (Bergmeyer, H. U., Gawehn, K. and Grassl, M. (1974) in Methods of Enzymatic Analysis (Bergmeyer, H. U. ed.) Volume 1, 2nd ed., 516-517, Academic Press, New York, N.Y.). All assays were set up at a total volume of 1 ml by adding 65 μl trypsin at final amount of 1.625 μg, 0.23 mM Na-benzoyl-L-arginine ethyl ester (BAEE) as substrate in 63 mM sodium phosphate, in the presence or absence of 100 μM or 125 μM AAT with or without different concentration of TPCK. Trypsin activity was measured by the cleavage of the substrate BAEE by measuring absorbance at 253 nm."}, "[9]": {"system": "HT-29 cells", "assay": "Labeling of autophagic vacuoles with monodansylcadaverine (MDC), HT-29 cells", "assay_type": "cell-based, human", "conditions": "HT-29 cells treated with TPCK for 24 hours", "procedure": "HT-29 colorectal adenocarcinoma cells were cultured in RPMI 1640 (Invitrogene, 21875) supplemented with 10% FBS, 300 mg/l L-glutamine, 100 U/ml penicillin, 100 μg/ml streptomycin and 12.5 U/ml nystatin at 37° C. in 5% CO2.\nas §2, §3, §4"}, "[10]": {"target": "AAT (Homo sapiens, UniProt P01009)", "sequence (P01009 25-418)": "as above", "assay": "AAT inhibition of trypsin activity (BAEE cleavage)", "assay_type": "biochemical", "conditions": "TPCK added to AAT and trypsin; P<0.001 compared with control", "procedure": "as §6"}, "[11]": {"system": "GFP-LC3 transfected MCF-7 cells", "assay": "GFP-LC3 imaging of transfected MCF-7 cells", "assay_type": "cell-based, human", "conditions": "TPCK 50 μM, 24 hours"}, "[12]": {"system": "alpha-1-antitrypsin (AAT)"}}, "note": "Where a SMILES comes first, the peptide text is derived from it. [ ]: non-standard residue; d: D form. The star is where a group is joined. Sta = CC(C)C[C@H](N)[C@@H](O)CC(=O)O; Isovaleryl = CC(C)CC(=O)*", "data": [{"compound": "Cn1cnc(N)c2ncnc1-2", "note": "[3-Methyladenine]", "values": [{"measurement": "MDC uptake in cells treated with TPCK", "setting": "[1]", "value": "suppressed MDC uptake"}, {"measurement": "TPCK or tamoxifen-induced cell death on addition of autophagy inhibitor", "setting": "[2]", "value": "reduced TPCK or tamoxifen-induced cell death"}]}, {"compound": "CCOC(=O)[C@H]1O[C@@H]1C(=O)N[C@@H](CC(C)C)C(=O)NCCC(C)C", "note": "[E64d]", "values": [{"measurement": "TPCK-induced accumulation of LC3-II", "setting": "[3]", "value": "enhanced TPCK-induced accumulation of LC3-II"}, {"measurement": "TPCK or tamoxifen-induced cell death on addition of autophagy inhibitor", "setting": "[2]", "value": "reduced TPCK or tamoxifen-induced cell death"}, {"measurement": "TPCK-induced accumulation of LC3-II", "setting": "[4]", "value": "enhanced TPCK-induced accumulation of LC3-II"}]}, {"compound": "CO/C1=C\\C(C)=C\\[C@@H](C)[C@@H](O)[C@@H](C)C/C(C)=C/C=C/[C@H](OC)[C@@H]([C@@H](C)[C@@H](O)[C@H](C)[C@@]2(O)C[C@@H](O)[C@H](C)[C@@H](C(C)C)O2)OC1=O", "note": "[bafilomycin A1]", "values": [{"measurement": "MDC uptake in cells treated with TPCK", "setting": "[1]", "value": "suppressed MDC uptake"}, {"measurement": "TPCK or tamoxifen-induced cell death on addition of autophagy inhibitor", "setting": "[2]", "value": "reduced TPCK or tamoxifen-induced cell death"}]}, {"compound": "CC(C)CC(=O)N[C@H](C(=O)N[C@H](C(=O)N[C@@H](CC(C)C)[C@@H](O)CC(=O)N[C@@H](C)C(=O)N[C@@H](CC(C)C)[C@@H](O)CC(=O)O)C(C)C)C(C)C", "note": "[pepstatin A] (Isovaleryl-VV[Sta]A[Sta]-OH)", "values": [{"measurement": "TPCK-induced accumulation of LC3-II", "setting": "[3]", "value": "enhanced TPCK-induced accumulation of LC3-II"}, {"measurement": "TPCK or tamoxifen-induced cell death on addition of autophagy inhibitor", "setting": "[2]", "value": "reduced TPCK or tamoxifen-induced cell death"}, {"measurement": "TPCK-induced accumulation of LC3-II", "setting": "[4]", "value": "enhanced TPCK-induced accumulation of LC3-II"}]}, {"compound": "CC/C(=C(\\c1ccccc1)c1ccc(OCCN(C)C)cc1)c1ccccc1", "note": "[tamoxifen]", "values": [{"measurement": "AAT level as compared to actin", "setting": "[5]", "value": "AAT level decreased"}, {"measurement": "competition with TRFCK on binding to AAT", "setting": "[6]", "value": "not able to compete with TRFCK on binding to AAT"}, {"measurement": "AAT level as compared to actin", "setting": "[7]", "value": "AAT level decreased"}, {"measurement": "cell death by trypan blue staining", "setting": "[2]", "value": "induced cell death"}]}, {"compound": "AAT: plasma-derived protein of the serine proteinase inhibitor family; recombinant AAT added to cells", "values": [{"measurement": "trypsin activity", "setting": "[8]", "value": "inhibits trypsin activity"}, {"measurement": "autophagy induced by TPCK and tamoxifen, assessed by MDC staining", "setting": "[1]; MCF-7 cells, AAT added prior to induction by TPCK (50 μM, 24 h) or tamoxifen (5 μM, 72 h)", "value": "reduction in autophagy"}, {"measurement": "cell death induced by TPCK and tamoxifen, determined by trypan blue staining", "setting": "[2]; AAT added prior to induction by TPCK (50 μM, 24 h) or tamoxifen (5 μM, 72 h)", "value": "reduction"}]}, {"compound": "N-tosyl-L-phenylalanine chloromethyl ketone [TPCK]", "values": [{"measurement": "MDC fluorescence intensity, number and size of MDC-labeled vesicles", "setting": "[9]", "value": "dose dependent increase in fluorescence intensity"}, {"measurement": "trypsin activity", "setting": "[8]", "value": "did not inhibit the trypsin activity"}, {"measurement": "LC3-II by western blot", "setting": "[3]; TPCK 50 μM, different times", "value": "appearance of LC3-II"}, {"measurement": "MDC fluorescence intensity, number and size of MDC-labeled vesicles", "setting": "[1]; MCF-7 cells treated with TPCK for 24 hours", "value": "dose dependent increase in fluorescence intensity"}, {"measurement": "AAT level as compared to actin", "setting": "[5]", "value": "AAT level decreased"}, {"measurement": "AAT level as compared to actin", "setting": "[7]", "value": "AAT level decreased"}, {"measurement": "AAT inhibition of trypsin activity", "setting": "[10]", "value": "the inhibition by AAT was abolished"}, {"measurement": "GFP-LC3 label (number of autophagosomes)", "setting": "[11]", "value": "accumulation of this label"}, {"measurement": "cell death by trypan blue staining", "setting": "[2]", "value": "induced cell death"}, {"measurement": "LC3-II by western blot", "setting": "[4]; TPCK 50 μM, different times", "value": "appearance of LC3-II"}]}, {"compound": "trypsin", "values": [{"measurement": "trypsin activity (cleavage of the substrate BAEE, absorbance at 253 nm)", "setting": "[12]", "value": "AAT inhibits trypsin activity"}]}]}
